This is an account of results in PubChem BioAssay (NCI).

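Compound exposure: 48 hours, 5 concentrations, 96-well plates. GI50 marks 50% less growth. TGI is the concentration that stops growth completely.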

Holding throughout (assay): NCI tumour cell line growth inhibition, 48 h
Assay [1] has as its system RXF 393 renal.
The subject of assay [2] is SNB-75 CNS.
The subject of assay [3] is HCC-2998 colon.
The subject of assay [4] is OVCAR-3 ovarian.
In assay [5] the test system is BT-549 breast.
Assay [6] deals with NCI/ADR-RES ovarian.
For assay [7], the system named is OVCAR-5 ovarian.
For assay [8], the system named is UO-31 renal.

For `N#Cc1c2ccccc2c2n1-c1ccccc1OC(c1ccccc1)C2=O` (stereo unspecified), the GI50 was 3.15 µM in assay [1]; 2230 nM in assay [2]; 15.5 µM in assay [3]; 5100 nM in assay [4]; 2.84 µM in assay [5]; 3.2 µM in assay [6]. Besides, the values for the GI50 in assay [7] and in assay [8] were 5.37 µM and 3.19 µM, respectively. Moreover, the TGI is 9.55 µM in assay [1]; 11.9 µM in assay [2]; 85.8 µM in assay [3]; 49.7 µM in assay [4]; 7.76 µM in assay [5]; 12 µM in assay [6]. Moreover, the figures for the TGI in assay [7] and in assay [8] were 34 µM and 12 µM, respectively.

As for `Cc1ccc2c[c]1[Hg][CH2]COS2(=O)=O`, the GI50 in assay [1] is 15.9 µM; in assay [2] it was greater than 100000 nM; in assay [3], 15.7 µM; in assay [5], 17.8 µM; in assay [6], 25 µM; in assay [7], 18.7 µM. In assay [8], the GI50 was 17.3 µM. Also, the TGI in assay [1] is 29.3 µM; in assay [2] it was greater than 100 µM; in assay [3], 34.5 µM; in assay [5], 31.6 µM; in assay [6] it was 62.1 µM; in assay [7], 37.4 µM. Moreover, the TGI in assay [8] worked out at 31 µM.

On to `COC(=O)Nc1nc2ccc(Oc3ccc(NC(=O)Nc4cccc(Br)c4)cc3)cc2[nH]1`, for which the GI50 is 1.92 µM in assay [1]; 781 nM in assay [2]; 6.04 µM in assay [3]; 1070 nM in assay [4]; 11.3 µM in assay [5]; greater than 6.8 µM in assay [6]. Moreover, the GI50 in assay [7] was greater than 11.9 µM; in assay [8], greater than 16.6 µM. Also, the TGI is 11.9 µM in assay [1]; 6.13 µM in assay [2]; greater than 25 µM in assay [3]; 3.99 µM in assay [4]; greater than 25 µM in assay [5]; greater than 25 µM in assay [6]. Besides, the TGI in assay [7] and in assay [8] was greater than 25 µM in each case.

`CCCCCCCCCCCCCC[P+](CCCCCC)(CCCCCC)CCCCCC`: the GI50 was 0.141 µM in assay [1]; 125 nM in assay [2]; 0.168 µM in assay [3]; 34.5 nM in assay [4]; 0.0412 µM in assay [5]; 0.73 µM in assay [6]. For the same compound, the GI50 was 0.267 µM in assay [7] and 0.29 µM in assay [8]. Besides, the TGI is 1.4 µM in assay [1]; 1.69 µM in assay [3]; 0.295 µM in assay [4]; 0.381 µM in assay [5]; greater than 100 µM in assay [6].

As to `C=C(C)C(=O)OC1CC2(C)OC2CC(OC(C)=O)/C(C)=C/C2OC(=O)C(=C)C21` (stereo unspecified), the TGI in assay [1] was determined as 4.64 µM; in assay [2], 42.3 µM; in assay [3], 15.1 µM; in assay [4], 7.96 µM; in assay [5], 5.41 µM; in assay [6], 18.2 µM. Besides, the TGI in assay [7] worked out at 17.5 µM; in assay [8] it was 12.5 µM.

As to `Cc1ccccc1S(=O)(=O)N1[C@H](c2ccc(Cl)cc2)C(C(=O)N[C@@H](Cc2ccccc2)C(N)=O)=C[C@@H]1C(C)(C)C`, the GI50 is 5.01 µM in assay [1]; 4850 nM in assay [2]; 6.48 µM in assay [3]; 6120 nM in assay [4]; 8.63 µM in assay [5]; 6.69 µM in assay [6]. Besides, the GI50 in assay [7] was 5.62 µM; in assay [8], 4.23 µM. For the same compound, the TGI in assay [1] is 11.9 µM; in assay [2] it was 12 µM; in assay [3], 13.5 µM; in assay [4], 14 µM; in assay [5], 20.9 µM; in assay [6], 21 µM. For the same compound, the values for the TGI in assay [7] and in assay [8] were 11.9 µM and 10.7 µM, respectively.

Turning to `NS(=O)(=O)c1ccc(C2C3=C(CCCC3=O)OC3=C2C(=O)c2ccccc2C3=O)cc1` (stereo unspecified), the GI50 in assay [1] was 1.45 µM; in assay [2], 259 nM; in assay [3], 1.47 µM; in assay [4], 244 nM; in assay [5], 1.12 µM; in assay [6], 2.43 µM. Moreover, the results for the GI50 in assay [7] and in assay [8] were 1.7 µM and 1.55 µM, respectively. Moreover, the TGI in assay [1] was 2.84 µM; in assay [2] it was 1.17 µM; in assay [3], 3.11 µM; in assay [4], 0.724 µM; in assay [5] it was 2.35 µM; in assay [6], 14.6 µM. Further, the TGI in assay [7] was determined as 3.51 µM; in assay [8] it was 2.92 µM.

Take `Nc1ccc(N=Nc2ccccc2)c(N)n1`: the GI50 in assay [1] was 20.3 µM; in assay [3] it was 24.8 µM; in assay [4], 20200 nM; in assay [5] it was 16.6 µM; in assay [6] it was 31 µM; in assay [7], 40.3 µM. Moreover, in assay [8], the GI50 was 13.7 µM. In addition, the TGI in assay [1] was 60.7 µM; in assay [3], 58.8 µM; in assay [4], 67.9 µM; in assay [5], 46.1 µM; in assay [6], greater than 100 µM; in assay [7], greater than 100 µM. Further, the TGI in assay [8] turned out to be 43 µM.

Take `CN(C)/C=C/c1nnnn1-c1ccc(Cl)cc1`: the GI50 is 7.55 µM in assay [1]; 25100 nM in assay [2]; 18.3 µM in assay [3]; 8.56 µM in assay [5]; 10.2 µM in assay [6]; 24.7 µM in assay [7]. For the same compound, in assay [8], the GI50 is 23.5 µM. In addition, the TGI in assay [1] is 26.8 µM; in assay [2], greater than 100 µM; in assay [3], 34.5 µM; in assay [5] it was 38.7 µM; in assay [6], 36.3 µM; in assay [7], 55.4 µM. In assay [8], this compound had a TGI of 84.8 µM.

For the compound `OCc1cccc(-c2ccc3ncc(-c4nc(NC5CC5)ncc4F)n3c2)c1`, the GI50 was 0.139 µM in assay [1]; 199 nM in assay [2]; 0.333 µM in assay [3]; 270 nM in assay [4]; 0.23 µM in assay [5]; 0.321 µM in assay [6]. The GI50 in assay [8] is 0.3 µM. The TGI in assay [1] stood at 0.356 µM; in assay [2], 0.453 µM; in assay [3], 2.17 µM; in assay [4], 1.09 µM; in assay [5], 0.811 µM; in assay [6], 1.68 µM. For the same compound, the TGI in assay [8] was 1 µM.
